Experimental data reported in patent US20140120181A1, “COMPOSITION COMPRISING PHOSPHATIDYLCHOLINE AS AN ACTIVE INGREDIENT FOR ATTENUATING TOXICITY OF ANTICANCER AGENT” (AMI Pharm Co., Ltd., priority 2011, published 2014).
“Also recorded” adds a separate entry of the source.

Experiments:
[1] = tested on: BUN (blood urea nitrogen) and creatine; assay: Analysis of kidney function (serum BUN and creatine), oral administration of PC; assay type: in vivo, Wistar-Hanover rats; details: cisplatin 6 mg/kg i.p. alone (group 13), 6 days, FIG. 4
Experimental: Cisplatin and phosphatidylcholne were used as same as Example 1. But, phosphatidylcholne was suspended in 100 mg/ml of distilled water.
Thirty-six of 6-week-old adult male Wistar-Hanover rats (Nara-biotechnology, Seoul, Korea) were purchased and quarantined for 1 week and divided into 6 groups as shown in Table 4. They were maintained at 22±2° C. in 12 hour light dark cycle, and were given a normal laboratory diet (Purina. Korea) and fresh water ad libitum. Their body weight were 200˜220 g. After quarantine period, rats were fasted for 24 hours prior to injection of first phosphatidylcholine, but were allowed free access to water throughout.
In all groups, saline and cisplatin were injected intraperitoneally and phosphatidylcholine was administered orally. […]
Blood collected in Example <2-1> was centrifuged at 4000 rpm for 10 min and serum was separated. The level of BUN (blood urea nitrogen) and creatine in serum was measured.
The level of BUN was measured by Urase-GLDH method (Laboratory reference values. Urea nitrogen (BUN). Rochester, Minn.: Mayo Foundation for Medical Education and Research; November 2010), creatine was measured by Jaffe method (Jaffe method, Lamb E et al, tiez textbook of clinical chemistry and molecular diagnosis, St. louis; elsevier saunders, 2006; 791-801) and the contents were measured Beckman Coulter AU5421 (Beckman Coulter, USA).

[2] = Measurement of body weight change during the test period; assay type: in vivo, SD rats; details: for change of body weight: 6 days
Experimental: 6-week aged male SD rats (albino S.D rat) were bought, stabilized for 1 week, and then divided into 6 groups noted in [table 1] for the test. Breeding environment conditions of 24±2° C., and 12-hour light-dark cycles were maintained, and non-antibiotic general solid feed was used.
For all groups, an agent was administered through intraperitoneal injection.
They were bred while changes in their body weights were measured for 6 days. Then, after they were euthanized, their blood samples 5 cc were collected by a cardiac puncture, and their kidneys were extracted for used in a test.
During the test period, a body weight of the test group was measured.

[3] = tested on: catalase, GPx (glutathione peroxidase), SOD (superoxide dismutase); assay: Activity of catalase, GPx, SOD in kidney tissue; assay type: in vivo, Wistar-Hanover rats; details: cisplatin 6 mg/kg i.p. only (group 13), FIG. 7
Experimental: (§1) Kidney samples collected from example <2-1> were immediately removed, washed in 0.9% saline and weighed. The kidneys were the mince with scissors, were homogenized in 0.1M Tris-HCl buffer (pH 7.4). The homogenization was carried out in Teflon-glass homogenizer (Bandelin, Germany) to obtain 1:10 (w/v) dilution. The homogenate was stored at −70° C. until analysis.
The activities of catalase, GPx, SOD which are anti-oxidative enzymes in kidney tissue were measured by a commercial kit.
Since catalase decomposes H2O2 into water and oxygen, the activity of CAT was measured through decreased absorbance by decomposition of H2O2. The absorbance was measured by using catalase assay kit (Sigma, CAT #100).
The activity of GPx was measured by using Glutathione peroxidase cellular activity assay kit CGP-1 (Sigma Aldrich, Cat. #CGP1). […] The decrease in NADPH absorbance measured at 340 nm, during the oxidation of NADPH to NADP is was indicative of GPx activity.
The activity of SOD is measured using the SOD assay kit (19160 SOD determination kit, Fluka/sigma Aldrich). The amount inhibiting 50% of xanthine oxidase activity per 1 mg of protein was set as 1 unit and the absorbance was measured at 450 nm.

[4] = tested on: MDA (malondialdehyde) in kidney tissue; assay: Quantification of lipid peroxidation (MDA) in kidney tissue; assay type: in vivo, Wistar-Hanover rats; details: cisplatin 6 mg/kg i.p. only (group 13), FIG. 5
Experimental: as §1
Degradation products of lipid peroxidate comprise a lot of carbonyl compounds and the representative is malondialdehyde, MDA. Therefore, the level of lipid peroxidation can be measured by quantification of MDA.
For quantification of MDA, the method of Buege and Aust (1978) were used. The samples were centrifuged at 12,000 g at 4° C. for 15 min, then 0.3 ml supernatant was removed and mixed with 0.9 ml of 8% trichloroacetic acid (TCA). The sample was again centrifuged at 10,000 g at 4° C. for 5 min. A 1 ml aliquot of supernatant was added to 0.25 ml of 1% TBA, and the resulting solution was heated at 100° C. for 20 min. […] After centrifugation at 3,000 g at 4° C. for 5 min, 1 ml of the n-butanol phase was isolated and the absorbance at 532 nm was measured. The standard curve of MDA was calculated from the absorbance and the amount of MDA per weight of tissue was measured and it is shown in FIG. 5A.
MDA content was calculated with MDA standards (Buege and Aust 1978).

kidney tissues = assay: Observation of a morphological change in kidney tissues (H&E, optical microscope); assay type: in vivo, SD rats; details: CDDP 5 mg/kg i.p. alone (group 3), FIG. 3-B
Source text: A rats kidney obtained from Example <1-1> was fixed in 10% neutral formalin, sliced by microtechnique, and subjected to haematoxylin & eosin staining through a general tissue processing process. Each of the stained kidney tissues was observed by an optical microscope.

[5] = tested on: GSH (glutathione) in kidney tissue; assay: Quantification of GSH (glutathione) in kidney tissue; assay type: in vivo, Wistar-Hanover rats; details: cisplatin 6 mg/kg i.p. only (group 13), FIG. 6
Experimental: as §1
The total GSH content of kidney tissue prepared in the Example <2-3> was determined using a modification of the method of Beutler et al. (Beutler, Duron et al. 1963). The method uses principle that when DTNB (5′5-dithiobis-2-nitro-benzoic acid) and GHS react, 2-nitro-5-thiobenzoic acid (yellow color) are produced. Therefore, the concentration of GSH can be determined by measuring absorbance at 412 nm.
A mitochondrial fraction was prepared by centrifugation at 600 g for 5 mins and samples were added to 5% of metaphosphoric acid (MPA) and allowed to stand for 5 mins to precipitate proteins. 1M of Phosphate buffer (pH 7.0) was added to proteins in the volumetric ratio of 1:4 for homogenization and DTNB (5′5-dithiobis-2-nitro-benzoic acid) were added to proteins in the volumetric ratio of 8:5 for color development. GSH was determined by measuring absorbance at 415 nm (shimadzu UV-1240) and absolute concentrations were calculated using a GSH standard (Sigma, USA).

ICR mice = assay: Lethality reducing effect by paclitaxel (LD50 of paclitaxel with PC pretreatment); assay type: in vivo; details: PC 0, 300, 600 mg/kg i.p. 4 hours before Taxol i.p.; lethality after 24 hours, FIG. 8; listed as phosphatidylcholine
Experimental: 6-week aged ICR mice (Samtako, Korea) were bought, and divided into 15 groups noted in table 5. They were stabilized for 20 hrs under conditions of 24±2° C., and 12-hour light-dark cycles while being fed with non-antibiotic general solid feed. […] After being stabilized, the mice were intra-peritoneally injected with the same phosphatidylcholine as that used in <Example 1-1>. After 4 hours, Taxol™ (BMS©, paclitaxel 6 mg/ml) was intra-peritoneally injected to the mice in which its amount was adjusted in such a manner that paclitaxel can be administered in an amount noted in table 5 below.
After 24 hours from administration of taxol, lethality of mice was measured. Based on the measured data on lethality, LD50 (a paclitaxel dose at lethality of 50%) in each of A, B, and C groups was measured.

rats = assay: Lethality after 6 days, CDDP with or without PC; assay type: in vivo, SD rats; details: PC 400 mg/kg i.p. alone (group 8)
Experimental: As noted in [table 3], a test group was prepared, and administered with a drug. After 6 days, lethality was calculated. An administration method, a test animal and a breeding method, etc. were the same as those in Example <1-1>.

[6] = tested on: BUN (blood urea nitrogen) and creatinine; assay: Test on a kidney function (serum BUN and creatinine), cisplatin nephrotoxicity, intra-peritoneal PC; assay type: in vivo, SD rats; details: PC i.p. 1 hour after CDDP 5 mg/kg i.p.
Experimental: The separated serum was used to measure BUN (blood urea nitrogen) and creatinine.
The measurement of BUN was carried out by using a BUN measuring kit (Young dong diagnostics) in the same manner as described below. A urea agent 0.1 ml was mixed with buffer 20 ml to prepare enzyme buffer, and the prepared enzyme buffer was added to each of 2 test tubes. To one of the test tubes, a to-be-tested serum sample 0.02 ml was added, and to the other test tube, a control reference solution [containing urea-N 60 mg/100 ml] 0.02 ml was added, followed by culturing at 37° C. for 15 min. Then, each test tube was added with chromogenic solution 2 ml, and cultured at 37° C. for 5 min again. By measuring the absorbance at 570 nm, the level of produced BUN was measured.
The measurement of creatinine was carried out by using a creatinine measuring kit (young dong diagnostics) in the same manner as described below. […] Exactly after 15 min, at 515 nm, absorbency was measured.

Row | SMILES | BUN level in serum [1] | creatine level in serum [1] | change of body weight ([2]; CDDP 5 mg/kg i.p. alone (group 3)) [%] | change of body weight ([2]; CDDP 5 mg/kg i.p. alone (group 3), listed as cisplatin) | body weight decreased by ([2]; CDDP 5 mg/kg i.p. alone (group 3), test period) | levels of the anti-oxidative enzymes (catalase, GPx, SOD) in kidney tissue [3] | MDA level in kidney tissue [4] | morphological change in kidney tissues (kidney tissues) | level of glutathione in kidney tissue [5] | LD50 of paclitaxel (ICR mice) | change of body weight ([2]; PC 400 mg/kg i.p. alone (group 2)) | lethal rate (rats) [%] | PC dose at which nephrotoxicity caused by CDDP was reduced [6] [mg/kg]
1 | N.N.[Cl][Pt][Cl] [CDDP, cis-dichlorodiammineplatinum] | increase | increase | −7.1 | reduction in body weight | about 7.1% | significantly reduced compared to control group 11 | very high compared to control group 11 | most epithelial cells in a proximal part and a distal part of the kidney showed a necrotic change through an inflammatory reaction | significantly low compared to control group 11 |  |  |  | 
2 | CCCCC/C=C/CCCCCCCC(=O)OC(COC(=O)CCCCCCCCCCCCC)COP(=O)([O-])OCC[N+](C)(C)C [PC, 1,2-diacyl-L-3-glycerylphosphorylcholine] |  |  |  |  |  |  |  |  |  | tends to increase; also recorded: increases depending on dosage of phosphatidylcholine | +9.2% | 0 | ≥ 600
